According to patent publication US7173021B2, “Synthesis of temozolomide esters as potent anticancer pro-drugs for topical and transdermal applications in treatments of cancers” (Tianjin North Pharm Sci-Tech Co., Ltd., priority 2004, dated 2007):
≈ marks a conversion by molar mass, not a printed value. Marks after values point to notes of the source that are not given here.

Legend:
MV3 (human melanoma) = experiment: In vitro tumour cell growth inhibition (MTT), MV3; type: cell-based; conditions: Homo sapiens, 96 h
Procedure: (§1) Temozolomide (white powder), temozolomide acid (white powder) and temozolomide-8-carboxylate hexyl (white scale crystal) were made in house. For the estimation of in vitro tumour cell growth inhibition, MV3 (human melanoma), M14 (human melanoma), B16 and B16-BL6 (mouse melanoma), SHG-44, TJ899 and TJ905 (human glioma), MCF-7 (human breast), HCT-8 (human colon), A549 (human non small lung), Bel7402 (human hepatocellulor), and BGC-823 (human stomach) were used. All tumour cells were cultured in RPMI-1640 medium supplemented with 10% fetal bovine serum (FBS) at 37° C. in a humidified 5% CO2 incubator.
(§2) After being harvested from culture flasks, a cell suspension of 1×10^4/ml was made by using 1640 RPMI medium supplemented with 10% fetal bovine serum. 100 μl (contains 1000 tumour cells) of the cell suspension was seeded per well of 96-well flat-bottom Costar culture plates at 37° C. in a humidified 5% CO2 incubator for 24 hrs before introducing drugs. Each tested compounds was made for five different concentrations and 100 μl of the each concentration was introduced into parallel three wells; control wells were added with 100 μl of plain medium alone; fluorouracil (a chemotherapeutic antitumour drug) was used as the positive control. Cells were then incubated for 96 h. Proliferative response and cell death were determined using MTT (3-(4,5-dimethylthiazolyl)-2,5-diphenyl-tetrazolium bromide) assay.
(§3) MTT assay: Following incubation of cells with the tested compounds for 96 h, 100 μl of 0.4 mg/ml MTT in RPMI 1640 was added to each well and the plate was incubated at 37° C. for 4 h. The plate was then centrifuged and followed by removal of medium. 150 μl of DMSO was then added to dissolve formazan crystal. DMSO-added plates were placed on a plate shaker for 5 min and absorbance was measured spectrophotometrically at 540 nm (with reference wavelength at 450 nm) using a Benchmark microtiter plate reader (Bio-Rad 550, Bio-Rad Laboratories, CA, U.S.A.).
(§4) The IC50 was calculated from the curve of the tested compound concentrations against the inhibition rate of the tumour cells. Table 1 summarized the experiment results by using six human cancer cell lines, HCT-8 (colon carcinoma), A549 (non small lung carcinoma), MCF-7 (breast), Bel7402 (hepatocellulor carcinoma), BGC-823 (stomach adenocarcinoma), and MV3 (melanoma). Table 2 summarized the results from the experiment results by using two human melanoma cell lines, MV3 and M14, two mouse melanoma cell lines, B16 and B16-BL6, and three human glioma cell lines, TJ899, SHG-44 and TJ905.

B16-BL6 (mouse melanoma) = experiment: In vitro tumour cell growth inhibition (MTT), B16-BL6; type: cell-based; conditions: Mus musculus, B16-BL6, Table 2 experiment, 96 h
Procedure: as §1, §2, §3, §4

[1] = test system: Bel7402 (human hepatocellulor); experiment: In vitro tumour cell growth inhibition (MTT), Bel-7402; type: cell-based; conditions: Table 1 experiment, 96 h
Procedure: as §1, §2, §3
(§5) The IC50 was calculated from the curve of the tested compound concentrations against the inhibition rate of the tumour cells. […]

[2] = test system: A549 (human non small lung); experiment: In vitro tumour cell growth inhibition (MTT), A549; type: cell-based; conditions: Table 1 experiment, 96 h
Procedure: as §1, §2, §3, §5

MV3 melanoma (human) = experiment: In vivo antitumour activity, BALB/c nude mice inoculated with MV3 melanoma, topical application; conditions: 20 mg/mouse/day topical
Procedure: The temozolomide hexyl ester is chosen to conduct an in viva antitumour test. BALB/c nude mice were inoculated with MV3 melanoma (human). Once the tumour volume became 100–300 mm^3, the mice were divided into a controlled and a tested group of eight with a rational distribution of the mice according to the sizes of the tumours. The tested group was treated with 5% (W/V) free made dimethyl sulfoxide (DMSO) solution of the temozolomide hexyl ester twice a day (once on Saturday and Sunday) via repeated topical application (total dosage is 20 mg/mouse/day), while the controlled group was left to grow naturally. In a period of two-week experiment, the tumour growth in the mice was carefully recorded through body weighing and the measurement of the tumour sizes. After two weeks, the mice were scarified; tumour bulks were separated and weighed. The results of inhibition of tumour growth by the temozolomide hexyl ester are summarized in Table 5 and depicted in FIG. 10.
Preparation of 5% (W/V) DMSO solution of the temozolomide hexyl ester is carried out by weighing a actual amount of the temozolomide hexyl ester, then using DMSO to make the concentration to 50 mg/ml. After temozolomide hexyl ester is completely dissolved and a clear solution is obtained, the fresh made 5% (W/V) DMSO solution of the temozolomide hexyl ester is used in the experiments.
BALB/c nude mice were inoculated with MV3 melanoma (human). Once the tumour bulk became 100–300 mm^3, the mice were divided into a controlled and a tested group with a rational distribution of the mice according to the sizes of the tumours. Each group is consisted of 8 mice.
The tested group was treated with 5% (W/V) DMSO solution of the temozolomide hexyl ester twice a day (once on Saturday and Sunday) via repeated topical application on position of tumour and around of 2×2 cm^2 region (total dosage is 20 mg/mouse/day); while the controlled group was left free of treatment to allow the tumour to growth naturally.
The tumour volumes (TV) in the mice were measured for twice of a week, calculated using TV(mm^3)=(length×width^2)÷2, and carefully recorded and finally depicted in FIG. 10. After two weeks, the mice were scarified; tumour bulks were isolated, weighed and calculated the growth inhibition rate of MV3 melanoma (human) in BALB/c nude mice by the temozolomide hexyl ester. The antitumour activity of the temozolomide hexyl ester against MV3 melanoma (human) in BALB/c nude mice is evaluated by the relative tumour proliferation ratio (T/C %). T/C (%) is calculated by the following equation:
Where, RTV=Vt/Vo (Vo is the tumour volume (TV) at the time when the mice were divided into the tested group and the controlled group; Vt is the tumour volume (TV) were measured at each time interval FIG. 10). The criteria for effectiveness are (1) when T/C (%)>60, the compound is no effect; (2) when T/C (%)≦60 and statistically significant P<0.05, the compound is effect. In the case of the temozolomide hexyl ester, the T/C (%) in BALB/c nude mice bearing MV3 melanoma (human) is 33.7% (Table 3) and P<0.05.

[3] = Solubility in 10% v/v propylene glycol; type: physicochemical; conditions: 10% v/v propylene glycol aqueous solution, aqueous with cosolvent or surfactant or cyclodextrin, thermodynamic from solid, ambient conditions, stirred 5 hours, read-out: Solubility, Concentration
Procedure: The potential of temozolomide esters used as topical and transdermal prodrugs is first proven through studies of their solubility. That is a decreased trend of solubility in an aqueous solution with increase of the length of the ester hydrocarbon alkyl chain of the temozolomide esters. It is clear the solubility constantly decreases from the methyl ester to the octyl ester, while temozolomide itself is 3.0 mg/ml similar to that of the methyl ester. […] Similarly to the esters, the solubility of the temozolomide amide products in the aqueous solution is considerably lower than that of temozolomide.
The solubility of temozolomide and the temozolomide esters was determined in 10% v/v propylene glycol by stirring an excess of the solid products at room temperature for 5 hours. The mixtures were then filtered, diluted with sample solvent and analysed using HPLC.

IC50 (MV3 (human melanoma); Table 1 experiment): 8.84 mg/L (≈ 31.6 µM) | IC50 (MV3 (human melanoma); Table 2 experiment (separate)): 25 mg/L (≈ 89.5 µM) | IC50 (B16-BL6 (mouse melanoma)): > 100 mg/L | IC50 [1]: 27.2 mg/L (≈ 97.4 µM) | IC50 [2]: 26.6 mg/L (≈ 95.4 µM) | solubility at 5 h [3]: 0.4 mg/mL (≈ 1430 µM)
SMILES: CCCCCCOC(=O)c1ncn2c(=O)n(C)nnc12 [temozolomide hexyl ester, Hexyl 3,4-dihydro-3-methyl-4-oxoimidazo[5,1-d]-1,2,3,5-tetrazine-8-carboxylate]
Body weight, end (MV3 melanoma (human); after two weeks, mean ± SD): 22.9 ± 2.23 g | Tumour weight (MV3 melanoma (human); after two weeks, mean ± SD): 0.41 ± 0.318 g | Tumour volume, end (MV3 melanoma (human); after two weeks, mean ± SD, P < 0.05 vs control): 622 ± 545.1* mm^3 | Body weight, start (MV3 melanoma (human); start, mean ± SD): 24.0 ± 1.53 g | Tumour volume, start (MV3 melanoma (human); start, mean ± SD): 116 ± 27 mm^3 | RTV (MV3 melanoma (human); RTV=Vt/Vo, two weeks): 3.01 ± 1.95 | Inhibition (%) of tumour growth (MV3 melanoma (human); from tumour weight, two weeks): 80.5% | T/C (%) (MV3 melanoma (human); relative tumour proliferation ratio, two weeks): 33.7%
